Assay results: article doi:10.64898/2025.12.11.693838v1 (biorxiv, 2025)

Biological target: T1, SaTpx (WT-SaTpx) (Staphylococcus aureus, UniProt Q2FXL3)
T1 sequence (Q2FXL3 1-164): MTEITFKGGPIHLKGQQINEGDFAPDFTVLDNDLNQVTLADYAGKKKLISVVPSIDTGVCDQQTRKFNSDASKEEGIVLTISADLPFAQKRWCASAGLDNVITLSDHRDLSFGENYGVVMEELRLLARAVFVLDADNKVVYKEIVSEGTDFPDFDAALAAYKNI
Test: coupled SaTrx1/SaTR NADPH oxidation assay at […] nm, Michaelis-Menten fit
Assay type: biochemical
Conditions: apparent; NADPH 0.2 mM; 20 mM Tris, 50 mM NaCl, pH 8.0

Work on `CC(C)(OO)c1ccccc1` [cumene hydroperoxide] yielded a Km of 8.5 µM.
